Source: article PMC4435632, “Phase 1 study of ixazomib, an investigational proteasome inhibitor, in advanced non-hematologic malignancies” (Investigational New Drugs, 2015)

Assays:
[1] = Plasma ixazomib pharmacokinetics (LC/MS/MS, noncompartmental); format: in vivo
Method: (§1) Blood samples for determination of plasma ixazomib concentrations for pharmacokinetic analysis (3 mL) and for measurement of whole blood 20S proteasome activity (1 mL) were collected at the following timepoints for all patients in the dose-escalation cohort and for the first 12 patients completing cycle 1 while receiving protocol-specified treatment at the MTD: pre-dose (within 1 h) on days 1, 4, 8, and 11 of cycle 1, and on day 1 of cycle 2; and on days 1 and 11, cycle 1, at 5, 15 and 30 min, and 1, 2, 4, 9, 24, 48, 96 (day 11 only), 120 (day 11 only), and 168 (day 11 only) h post-dose. A limited sampling schedule was employed for the remaining patients in the MTD expansion cohorts.
(§2) Plasma concentrations of ixazomib were measured using a good laboratory practice-validated liquid chromatography/tandem mass spectrometry (LC/MS/MS) assay with a lower limit of quantification of 0.5 ng/mL. Whole blood 20S proteasome activity (expressed as percent proteasome inhibition relative to baseline) was measured using an established fluorogenic assay, which evaluates the chymotrypsin-like activity of the β5 subunit of the 20S proteasome, the primary target of ixazomib. […]
(§3) All efficacy and safety data were summarized using descriptive statistics. Pharmacokinetic and pharmacodynamic parameters were calculated using noncompartmental methods (WinNonlin software v5.3).

[2] = target: chymotrypsin-like activity of the β5 subunit of the 20S proteasome (Homo sapiens, UniProt P28074); assay: Whole blood 20S proteasome activity, fluorogenic assay; format: in vivo
Method: as §1, §2, §3

[3] = system: patients with advanced non-hematologic malignancies; assay: Dose-limiting toxicities in cycle 1 and determination of MTD; format: in vivo
Method: The dose-escalation cohort comprised patients with any non-hematologic malignancy. The four MTD expansion cohorts were limited to patients with non-small cell lung cancer (NSCLC), head and neck cancer (squamous cell cancer), soft tissue sarcoma, and prostate cancer, respectively. In addition, the TPEC was open to patients with non-hematologic malignancy that could be safely biopsied. Dose escalation initially proceeded from a starting dose of 0.125 mg/m^2 of body surface area, with one patient per dose level and dose doubling up to a dose of 1.0 mg/m^2. Dose doubling was permitted until one of the following occurred: one patient experienced a dose-limiting toxicity (DLT) during cycle 1; any two patients experienced a drug-related adverse event (AE) of grade ≥2 during cycle 1; or the dose level of 1 mg/m^2 had been evaluated. Dose escalation then proceeded in 33 % increments following a standard 3 + 3 schema based on the occurrence of DLTs in cycle 1. […]
The safety population included all patients who received ≥1 dose of ixazomib, and the DLT-evaluable population, which was used for determination of the MTD, comprised patients who received all cycle 1 doses of ixazomib or experienced a DLT in cycle 1. […] Approximately 16 response-evaluable patients were planned to be evaluated in each MTD expansion cohort.

[4] = system: advanced non-hematologic malignancies; assay: Disease response (RECIST 1.0 / modified PCWG2); format: in vivo, human
Text: AEs were monitored throughout the study and were graded according to National Cancer Institute Common Terminology Criteria for Adverse Events (NCI-CTCAE) v3.0. Response assessments were undertaken by investigators using a consistent imaging modality in accordance with RECIST 1.0 [23] on days 18–21 of cycle 2 and subsequent cycles. For patients with prostate cancer, response and progressive disease were based on RECIST for measurable neoplastic disease or on measurement of serum PSA per modified PCWG2 criteria in the absence of measurable sites.
The safety population included all patients who received ≥1 dose of ixazomib, and the DLT-evaluable population, which was used for determination of the MTD, comprised patients who received all cycle 1 doses of ixazomib or experienced a DLT in cycle 1. […] The response-evaluable population included all patients who received ≥1 dose of ixazomib, had measurable disease at baseline, and had ≥1 post-baseline disease assessment. Approximately 16 response-evaluable patients were planned to be evaluated in each MTD expansion cohort.

Question: Which results are given for CC(C)C[C@H](NC(=O)CNC(=O)c1cc(Cl)ccc1Cl)B(O)O [ixazomib]?
Answer: C0 (extrapolated immediate post-bolus plasma concentration) ([1]; day 1, 2.34 mg/m^2 IV, n = 1, individual value): 901 ng/mL; t½ (terminal disposition phase half-life) ([1]; day 11, 1.33 mg/m^2 IV, n = 3, geometric mean (% CV)): 145 (19) h; Decrease of mean plasma concentrations ([1]; human, in vivo, 8 h): approximately 90%; Accumulation of ixazomib ([1]; human, in vivo, 11 day of cycle 1): approximately 3 fold; half-life ([1]; human, in vivo, iv): 91.2 to 173 h; C0 ([1]; human, in vivo, iv, 0.125 mg/m2, C0 (extrapolated immediate post-bolus plasma concentration)): 27.1 ng/mL; AUC(0-t) ([1]; human, in vivo, iv, 0.25 mg/m2, AUC0–72): 60.9 ng·h/mL; C0 ([1]; human, in vivo, iv, 0.25 mg/m2, C0 (extrapolated immediate post-bolus plasma concentration)): 69 ng/mL; half-life ([1]; human, in vivo, iv, 1 mg/m2): 172 h; C0 ([1]; human, in vivo, iv, 1 mg/m2, C0 (extrapolated immediate post-bolus plasma concentration)): 273 ng/mL; C0 ([1]; human, in vivo, iv, 1.33 mg/m2, C0 (extrapolated immediate post-bolus plasma concentration)): 390 ng/mL; half-life ([1]; human, in vivo, iv, 1.76 mg/m2): 110 h; C0 ([1]; human, in vivo, iv, 1.76 mg/m2, C0 (extrapolated immediate post-bolus plasma concentration)): 556 ng/mL; half-life ([1]; human, in vivo, iv, 2.34 mg/m2): 90.8 h; C0 ([1]; human, in vivo, iv, 2.34 mg/m2, C0 (extrapolated immediate post-bolus plasma concentration)): 869 ng/mL; Plasma exposure versus dose ([1]; in vivo): appeared to increase proportionally with increasing ixazomib dose; Time to Emax, whole blood 20S proteasome ([2]; day 1, 0.125 mg/m^2 IV, n = 1): 1.0 h; Emax, whole blood 20S proteasome ([2]; day 1, 0.125 mg/m^2 IV, n = 1, individual value): 7.7 % inhibition; Time to Emax, whole blood 20S proteasome ([2]; day 1, 0.25 mg/m^2 IV, n = 1): 0.10 h; Emax, whole blood 20S proteasome ([2]; day 1, 0.25 mg/m^2 IV, n = 1, individual value): 17.9 % inhibition; Time to Emax, whole blood 20S proteasome ([2]; day 1, 0.5 mg/m^2 IV, n = 1): 0.25 h; Emax, whole blood 20S proteasome ([2]; day 1, 0.5 mg/m^2 IV, n = 1, individual value): 28.2 % inhibition; Emax, whole blood 20S proteasome ([2]; day 1, 1 mg/m^2 IV, n = 7, mean (± SD)): 36.9 (±19.4) % inhibition; Time to Emax, whole blood 20S proteasome ([2]; day 1, 1 mg/m^2 IV, n = 7, median (range)): 0.10 (0.08–0.10) h; Emax, whole blood 20S proteasome ([2]; day 1, 1.33 mg/m^2 IV, n = 4, mean (± SD)): 46.7 (±9.4) % inhibition; Time to Emax, whole blood 20S proteasome ([2]; day 1, 1.33 mg/m^2 IV, n = 4, median (range)): 0.25 (0.1–0.25) h; Emax, whole blood 20S proteasome ([2]; day 1, 1.76 mg/m^2 IV, n = 19, mean (± SD)): 61.3 (±7.9) % inhibition; Time to Emax, whole blood 20S proteasome ([2]; day 1, 1.76 mg/m^2 IV, n = 19, median (range)): 0.10 (0.067–0.267) h; Emax, whole blood 20S proteasome ([2]; day 1, 2.34 mg/m^2 IV, n = 3, mean (± SD)): 64.4 (±3.4) % inhibition; Time to Emax, whole blood 20S proteasome ([2]; day 11, 0.125 mg/m^2 IV, n = 1): 24.0 h; Emax, whole blood 20S proteasome ([2]; day 11, 0.125 mg/m^2 IV, n = 1, individual value): 4.5 % inhibition; Time to Emax, whole blood 20S proteasome ([2]; day 11, 0.25 mg/m^2 IV, n = 1): 0.083 h; Emax, whole blood 20S proteasome ([2]; day 11, 0.25 mg/m^2 IV, n = 1, individual value): 10.0 % inhibition; Time to Emax, whole blood 20S proteasome ([2]; day 11, 0.5 mg/m^2 IV, n = 1): 0.1 h; Emax, whole blood 20S proteasome ([2]; day 11, 0.5 mg/m^2 IV, n = 1, individual value): 46.1 % inhibition; Emax, whole blood 20S proteasome ([2]; day 11, 1 mg/m^2 IV, n = 6, mean (± SD)): 38.9 (±8.35) % inhibition; Time to Emax, whole blood 20S proteasome ([2]; day 11, 1 mg/m^2 IV, n = 6, median (range)): 0.1 (0.0–0.117) h; Emax, whole blood 20S proteasome ([2]; day 11, 1.33 mg/m^2 IV, n = 3, mean (± SD)): 54.3 (±4.1) % inhibition; Time to Emax, whole blood 20S proteasome ([2]; day 11, 1.33 mg/m^2 IV, n = 3, median (range)): 0.083 (0.083–0.1) h; Emax, whole blood 20S proteasome ([2]; day 11, 1.76 mg/m^2 IV, n = 15, mean (± SD)): 62.5 (±7.71) % inhibition; Time to Emax, whole blood 20S proteasome ([2]; day 11, 1.76 mg/m^2 IV, n = 15, median (range)): 0.10 (0.083–0.283) h; Emax, whole blood 20S proteasome ([2]; day 11, 2.34 mg/m^2 IV, n = 3, mean (± SD)): 72.5 (±4.71) % inhibition; Time to Emax, whole blood 20S proteasome ([2]; day 11, 2.34 mg/m^2 IV, n = 3, median (range)): 0.10 (0.083-0.133) h; inhibition at 1.76 mg/m2 ([2]; read-out: Average maximal inhibition of 20S proteasome activity in whole blood): 60%; Recovery of 20S proteasome activity to predose levels ([2]; single-dose administration on day 1, except dose level greater than the MTD): ≤ 24 h; MTD (maximum tolerated dose) ([3]; IV on days 1, 4, 8, and 11 of a 21-day cycle): 1.76 mg/m^2; Patients who experienced DLTs ([3]; in vivo): Five; Patients with stable disease ([4]; 92 response-evaluable patients): 30 patients; Patients with stable disease lasting for ≥4 cycles ([4]; 92 response-evaluable patients): eight; Patients with partial response ([4]; 92 response-evaluable patients, head and neck cancer, MTD 1.76 mg/m^2): one; Reduction in tumor diameter ([4]; one patient with kidney malignancy, progressive disease at end of study): 14%; Reduction in tumor diameter ([4]; other patient with kidney malignancy, discontinued due to grade 3 acute renal failure): 22%; Total duration of partial response ([4]; patient with head and neck cancer, achieved after 4 cycles, maintained for 8 cycles): 6.7 months
